Here are results for one compound from publication PMC12698445, “Phenolic profile of different solvent extracts of Reseda alba L. and evaluation of anti-quorum sensing, antioxidant, and enzyme inhibition activities” (Frontiers in Nutrition, 2025).

SMILES strings stand for the structures.

The experiment deals with T1, fungal tyrosinase.
T1 construct: gene PPO3; only 'fungal' printed
The experiment is described as follows: L-DOPA oxidation, […] nm. In kind it is biochemical. Particulars: L-DOPA substrate, pH 6.8, room temperature.

As for `O=c1cc(CO)occ1O` [Kojic acid], the “Tyrosinase / IC50” value came to 23.80 ± 0.25 µg/mL.
